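The compound was tested at five concentrations on cells cultured in 96-well plates, with a 48-hour exposure period. GI50: concentration for 50% inhibition of growth.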 Calls of active or inactive are those of the source. No stated cut-off is given here; in the data, active = GI50 up to about 1.1 µM and inactive = higher.
How the values were obtained:
Test in all cases: DTP human tumour cell line panel, 48 h
DU-145 = system: DU-145
T47D = system: T47D
XF498 = system: XF498
SNB-78 = system: SNB-78
DLD-1 = system: DLD-1
DMS-273 = system: DMS-273
LXFL 529 = system: LXFL 529
HOP-18 = system: HOP-18

COC(=O)c1oc([N+](=O)[O-])c(Cl)c1Cl
GI50 (DU-145): 17.6 µM (inactive)
GI50 (T47D): 4.76 µM (inactive)

COC(=O)C1C(OC(=O)C(Cl)(c2ccccc2)c2ccccc2)CC2CCC1N2C (stereo not drawn)
GI50 (DU-145): > 100 µM (inactive)
GI50 (T47D): > 100 µM (inactive)

O=C(Nn1c(-c2ccccc2)nc2ccccc2c1=O)c1ccc(Cl)cc1
GI50 (DU-145): > 100 µM (inactive)
GI50 (T47D): 85.5 µM (inactive)

COc1cc(C2SCC(=O)N2Cc2ccccc2)cc(OC)c1OC (stereo not drawn)
GI50 (DU-145): 22.1 µM (inactive)

Cn1c(N/N=C/c2ccc(Cl)cc2)nc(-c2ccc(Cl)cc2)c(C#N)c1=O
GI50 (DU-145): 22.5 µM (inactive)
GI50 (T47D): > 100 µM (inactive)

CSc1c(C(=O)Nc2ccc(Cl)cc2)c(N)nn1-c1ccccc1
GI50 (DU-145): > 100 µM (inactive)
GI50 (T47D): > 100 µM (inactive)

CCOC(=O)C1CC/C(=C(/C#N)C(=O)OC)N1 (stereo not drawn)
GI50 (XF498): > 100 µM (inactive)
GI50 (SNB-78): > 100 µM (inactive)
GI50 (DLD-1): > 100 µM (inactive)
GI50 (DMS-273): > 100 µM (inactive)
GI50 (LXFL 529): > 100 µM (inactive)

C(=C1/CCCCC([n+]2ccccc2)=N1)/c1ccccc1
GI50 (HOP-18): > 100 µM (inactive)
GI50 (SNB-78): > 100 µM (inactive)
GI50 (DLD-1): > 100 µM (inactive)
GI50 (DMS-273): > 100 µM (inactive)
GI50 (LXFL 529): > 100 µM (inactive)

NC(=O)C(=CN1CC(=O)NC1=S)C(N)=O
GI50 (DU-145): > 100 µM (inactive)
GI50 (T47D): > 100 µM (inactive)

C=CCOC(=O)NC1C(OC(C)[C@@H](NC(=O)OCc2ccccc2)C(=O)OC(C)(C)C)OC(COC(C)=O)C(OC(C)=O)C1OC(C)=O (stereo partly drawn)
GI50 (DU-145): > 100 µM (inactive)

CCOC(=O)CCC(NC(=O)c1ccc(OCc2nc3cc(C(F)(F)F)ccc3nc2-c2ccccc2)cc1)C(=O)OCC (stereo not drawn)
GI50 (DU-145): 86.1 µM (inactive)
GI50 (T47D): 20.4 µM (inactive)

O=[N+]([O-])c1ccc(C[P+](c2ccccc2)(c2ccccc2)c2ccccc2)cc1
GI50 (HOP-18): 79.8 µM (inactive)
GI50 (XF498): < 0.01 µM (active)
GI50 (DLD-1): 50.4 µM (inactive)
GI50 (DMS-273): 37.8 µM (inactive)
GI50 (LXFL 529): 12.5 µM (inactive)

CC(=O)NC1=C(NCCCl)C(=O)c2ccccc2C1=O
GI50 (DU-145): 30.5 µM (inactive)
GI50 (T47D): 25.1 µM (inactive)

OCCOCn1cc(Cn2ncc3c(SCc4ccccc4)ncnc32)nn1
GI50 (DU-145): 43.7 µM (inactive)
GI50 (T47D): 27.5 µM (inactive)

CCc1cccc(C(C)C)c1NC(=O)C(=O)C(Cc1nc2ccccc2nc1O)C(=O)OC (stereo not drawn)
GI50 (HOP-18): > 100 µM (inactive)
GI50 (XF498): > 100 µM (inactive)
GI50 (DLD-1): > 100 µM (inactive)
GI50 (DMS-273): 61.4 µM (inactive)
GI50 (LXFL 529): > 100 µM (inactive)

CC1CN(CCO)CC(C)O1 (stereo not drawn)
GI50 (DU-145): > 100 µM (inactive)
GI50 (T47D): > 100 µM (inactive)

Cc1ccc(S(=O)(=O)Nc2ccccc2C(C)(C)C)cc1
GI50 (XF498): 22 µM (inactive)
GI50 (SNB-78): 31.6 µM (inactive)
GI50 (DLD-1): 30.8 µM (inactive)
GI50 (DMS-273): 17.3 µM (inactive)
GI50 (LXFL 529): 24.9 µM (inactive)

COC(=O)C(=O)C(C(=O)C(=O)Nc1ccccc1C(N)=O)c1nc2ccc(Cl)cc2nc1O (stereo not drawn)
GI50 (DU-145): > 100 µM (inactive)
GI50 (T47D): > 100 µM (inactive)

CCCCCCCCCCCCCCCCP(=O)(O)OCC(N)C(=O)O (stereo not drawn)
GI50 (DU-145): > 100 µM (inactive)
GI50 (T47D): > 100 µM (inactive)

COc1c(O)c2c(c3cc(C(=O)N4CCc5c4c(O)c(OC)c4[nH]c(C(=O)N6CC7CC78C6=CC(=O)c6[nH]cc(C)c68)cc54)[nH]c13)CCN2C(N)=O (stereo not drawn) [CC-1065]
GI50 (DU-145): 0.284 µM (active)
GI50 (SNB-78): 0.00404 µM (active)
GI50 (DLD-1): 0.00103 µM (active)
GI50 (DMS-273): 0.00142 µM (active)
GI50 (T47D): 0.356 µM (active)
GI50 (LXFL 529): 0.00834 µM (active)

COc1cccc2c1OC1(C=C2)Oc2ccccc2C(=O)N1C (stereo not drawn)
GI50 (DU-145): 34 µM (inactive)
GI50 (T47D): 31.9 µM (inactive)

Clc1ccc2c(Cl)ncnc2c1
GI50 (XF498): > 100 µM (inactive)
GI50 (DLD-1): > 100 µM (inactive)
GI50 (DMS-273): > 100 µM (inactive)

CCCCCc1c2nc(c(CCCCC)c3ccc([nH]3)c(CCCCC)c3nc(c(CCCCC)c4ccc1[nH]4)C=C3)C=C2
GI50 (DU-145): > 100 µM (inactive)
GI50 (T47D): > 100 µM (inactive)

CC(C)(C=O)CC(C#N)/C(=N\NC(N)=O)C(=O)Nc1ccccc1C(N)=O (stereo not drawn)
GI50 (XF498): > 100 µM (inactive)
GI50 (SNB-78): > 100 µM (inactive)
GI50 (LXFL 529): > 100 µM (inactive)

CC1=C[C@H](C[C@]2(C)c3c(c4c(C)cccc4oc3=O)O[C@@H]2C)OC1=O
GI50 (DU-145): > 100 µM (inactive)
GI50 (T47D): 50.8 µM (inactive)

O=C(/C=C/C=C/c1ccccc1)c1ccccc1
GI50 (DU-145): 17.3 µM (inactive)
GI50 (T47D): 18.4 µM (inactive)

O=C(O)c1nc2cc(C(F)(F)F)ccc2nc1Nc1ccc(F)cc1
GI50 (T47D): 20.2 µM (inactive)

OC1C#CCSCC#C/C=C\1 (stereo not drawn)
GI50 (DU-145): > 100 µM (inactive)

CCOC(=O)CCCn1cc(C(=O)OC)nn1
GI50 (DU-145): > 100 µM (inactive)
GI50 (T47D): > 100 µM (inactive)

C/C(=C1/N=C(c2ccccc2)OC1=O)c1cccs1
GI50 (DU-145): > 100 µM (inactive)
GI50 (T47D): > 100 µM (inactive)

Nn1c(-c2ccccc2)n[nH]c1=O
GI50 (DU-145): > 100 µM (inactive)
GI50 (T47D): > 100 µM (inactive)

COC(=O)C(=O)C(C(=O)OC)C(=O)C(=O)Nc1c(Cl)cc([N+](=O)[O-])cc1Cl (stereo not drawn)
GI50 (T47D): > 100 µM (inactive)

C(/c1ccco1)=c1/nc(-c2ccccc2)n2c1nc1ccccc12
GI50 (DU-145): > 100 µM (inactive)
GI50 (T47D): 1.08 µM (active)

O=C(C(=O)N1CCc2ccccc21)c1c[nH]c2ccccc12
GI50 (DU-145): > 10 µM (inactive)
GI50 (T47D): > 10 µM (inactive)

CCCSc1ccc2[nH]c(N3C(=O)/C(=C/c4ccc(O)c(OC)c4)N=C3c3ccccc3)cc2c1
GI50 (DU-145): 25.8 µM (inactive)
GI50 (T47D): 22.3 µM (inactive)

CC(C)/C(Cl)=N\OC(=O)NNc1ccccc1
GI50 (DU-145): > 100 µM (inactive)
GI50 (T47D): 2.35 µM (inactive)

Source: ChEMBL document CHEMBL1201862, “PubChem BioAssay data set” (2004)
